Data published in patent publication US20120196919A1, “EX-VIVO TREATMENT OF IMMUNOLOGICAL DISORDERS WITH PKC-THETA INHIBITORS” (NEW YORK UNIVERSITY, priority 2009, published 2012).

Legend:
PKC-theta = PKC-theta (Homo sapiens, UniProt Q04759); assay: luciferase assay for inhibition of the kinase activity of PKC-theta; format: biochemical; conditions: luciferase assay of US 2005/0124640
Description: The preparation of these compounds and the luciferase assay used to determine the IC50 for inhibition of the kinase activity of PKC-theta are described in US Patent Application Publication number 2005/0124640. For the in vitro and ex vivo assays above, compounds were dissolved in DMSO. T cells were pretreated with indicated concentrations of the inhibitors or DMSO control for 30 min at 37° C. and washed three times.

CD4+CD25+ Treg cells [1] = assay: T cell transfer model of colitis with ex vivo treated Treg; format: in vivo, C57BL/10.PL TCR alpha-/-beta-/- mice; conditions: inhibitor treated Treg
Description: (§1) Colitis was induced in C57BL/10.PL TCR alpha^−/−beta^−/− mice as described in Methods summary. 5a—numbers of mice were 5 (PBS), 8 (Teff), 7 (Teff/Treg control), 7 (Teff/Treg PKC-theta inhibitor). 5b-Histology slides of distal colon for the different groups. Normal histology is observed in PKC-theta treated mice. 5c, 5d-Freshly purified Treg from healthy donors and RA patients were treated or not with PKC-theta inhibitor for 30 min at 1 microM, washed three times, mixed with CD4^+CD25^− T cells at ratio 1:3, and plated on anti-CD3 mAb. The supernatants were analyzed for IFN-gamma after 24-48 hours. Combined data of three independent experiments are presented. % Treg-mediated inhibition was calculated as: 1−level of IFN-gamma in presence of Treg/level of IFN-gamma in absence of Treg)φ100%. P values were calculated by t-test.
Next, we determined the ability of PKC-theta inhibitor Ia to up-regulate Treg function in vivo using a colitis model in TCR alpha^−/−beta^−/− mice induced by transfer of effector CD4^+CD25^−CD45RB^+ Teff cells (F. Powrie, et al., J. Exp. Med. 1996, 183, 2669).
[…] Disease progression was monitored by body weight loss, diarrhea and histology analysis as previously described (F. Powrie, et al., J. Exp. Med. 1996, 183, 2669). P values were determined by Mann-Whitney test or two-tailed t-test by using the GraphPad Prism software (San Diego, Calif.).

CD4+CD25+ Treg cells [2] = assay: Treg/Teff co-culture on anti-CD3 mAb, cell proliferation by Alamar Blue; format: cell-based, human; conditions: Treg treated 0.001-1 microM 30 min, washed, Treg/Teff 1:9, anti-CD3; proliferation after 96 h (FIG. 1b)
Description: (§2) Treg cells and CD4^+CD25^− Teff (non-Treg) cells were treated with Compound Ia at 0.001-1 microM (a-b) for 30 min, or at 1 microM for 0-60 min (c). Treated cells were mixed with CD4^+CD25^− T (Teff) cells at 1:9 ratio and plated on immobilized anti-CD3 mAb. The supernatants were analyzed for IFN-gamma after 24-48 hours (a and c). Cell proliferation was determined after 96 hours (b). Average of four different experiments is shown.
CD4^+CD25^+ regulatory T cells (Tregs) suppress the function of CD4^+ and CD8^+ effector cells (Teff) through an antigen receptor and cell contact mechanism. […] IFN-gamma secretion and cell proliferation were measured after 24 and 96 hours respectively. […]
(§3) CD4^+CD25^+ Treg and CD4^+CD25^− Teff cells were purified from the peripheral blood of healthy human donors or from 25 patients with Rheumatoid arthritis in different stages (accordingly to disease activity score (DAS)) as described in the literature M. L. Prevoo, et al., Arthritis and rheumatism, 1995, 38, 44; A. Zanin-Zhorov, et al., J. Clin. Invest, 2006, 116, 2022). […] Cytokine secretion was determined by ELISA as previously described A. Zanin-Zhorov, et al., ibid., 2006), using Human IFN-gamma Cytose™ (Biosource; Camarillo, Calif.). Proliferation was assessed by Alamar Blue™ assay (Invitrogen) as previously described (S. A. Ahmed, et al., J. immunological Methods, 1994, 170, 211-224). […]

CD4+CD25+ Treg cells [3] = assay: Treg/Teff co-culture on anti-CD3 mAb, IFN-gamma secretion by ELISA; format: cell-based, human
Description: as §2
Treg were treated with 1 microM PKC-theta inhibitors with different IC50 values as indicated on graph. Treated cells were mixed with CD4^+CD25^− T (Teff) cells at 1:9 ratio and plated on immobilized anti-CD3 mAb. The supernatants were analyzed for IFN-gamma after 24-48 hours. An average of four different experiments is shown. As shown in the graph, the enhancement of suppressive effect on IFN-gamma secretion generally correlates with the potency of the inhibitors.
Treated Treg and non-Treg, or siRNA-transfected Treg were mixed with CD4^+CD25^− T (Teff) cells at 1:9 ratio and plated on immobilized anti-CD3 mAb. The supernatants were analyzed for IFN-gamma after 24-48 hours. An average of four different experiments is shown.
CD4^+CD25^+ regulatory T cells (Tregs) suppress the function of CD4^+ and CD8^+ effector cells (Teff) through an antigen receptor and cell contact mechanism. […] We investigated whether inhibition of PKC-theta may affect the suppressive function of human CD4^+CD25^+ Treg cells in vitro. For this purpose, we treated CD4^+CD25^+ Treg or CD4^+CD25^− Teff cells (Treg or non-Treg respectively in FIGS. 1a and 1b) with a specific PKC-theta inhibitor, namely, Compound Ia, washed and cultured the cells with untreated Teff cells in a ratio of 1:9 on stimulatory anti-CD3 antibodies. IFN-gamma secretion and cell proliferation were measured after 24 and 96 hours respectively. […] Moreover, the effect of PKC-theta inhibitor on Treg function was time-dependent; maximal levels of enhanced suppressive function were achieved after 30 min of Treg treatment with the compound (FIG. 1c).
as §3

[4] = test system: Treg cells purified from RA patients; assay: Suppression of IFN-gamma from autologous Teff by Treg purified from RA patients; format: cell-based, human; conditions: Treg from 25 RA patients, 1 microM 30 min, Treg/Teff 1:3, 24-48 h (FIG. 5d)
Description: as §1, with “t-test. […]” for “t-test.”
as §3, with “Calif.).” for “Calif.). Proliferation was assessed by Alamar Blue™ assay (Invitrogen) as previously described (S. A. Ahmed, et al., J. immunological Methods, 1994, 170, 211-224).”

Chain of PKC-theta (Q04759 whole entry): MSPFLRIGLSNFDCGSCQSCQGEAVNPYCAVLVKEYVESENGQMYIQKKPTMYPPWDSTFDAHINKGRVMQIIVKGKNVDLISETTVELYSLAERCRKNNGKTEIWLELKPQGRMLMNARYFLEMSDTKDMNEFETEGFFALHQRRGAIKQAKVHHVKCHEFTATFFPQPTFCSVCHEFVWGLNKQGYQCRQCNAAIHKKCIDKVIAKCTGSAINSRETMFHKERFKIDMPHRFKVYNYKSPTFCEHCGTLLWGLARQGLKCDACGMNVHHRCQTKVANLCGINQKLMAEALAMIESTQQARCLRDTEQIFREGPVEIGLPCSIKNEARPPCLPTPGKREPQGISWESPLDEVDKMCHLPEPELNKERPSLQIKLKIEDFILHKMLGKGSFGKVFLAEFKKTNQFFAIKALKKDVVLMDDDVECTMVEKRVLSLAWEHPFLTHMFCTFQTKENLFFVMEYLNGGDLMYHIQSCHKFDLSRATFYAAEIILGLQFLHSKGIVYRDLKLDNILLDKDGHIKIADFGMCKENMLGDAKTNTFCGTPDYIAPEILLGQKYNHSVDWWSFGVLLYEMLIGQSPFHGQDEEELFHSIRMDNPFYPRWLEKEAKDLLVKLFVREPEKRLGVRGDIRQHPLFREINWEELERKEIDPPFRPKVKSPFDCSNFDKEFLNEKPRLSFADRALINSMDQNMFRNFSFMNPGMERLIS

O=[N+]([O-])c1cnc(NCC2CCNCC2)nc1NCc1ccccc1OC(F)(F)F [Id]
IC50 (PKC-theta): 300 nM

N[C@H]1CC[C@H](CNc2nc(NCc3ccccc3OC(F)(F)F)ccc2[N+](=O)[O-])CC1 [Ie]
IC50 (PKC-theta): 1000 nM

O=[N+]([O-])c1cnc(SCc2ccccc2Cl)nc1NCC1CCNCC1 [Ic]
IC50 (PKC-theta): 8 nM

NC[C@H]1CC[C@H](CNc2nc(NCc3ccccc3OC(F)(F)F)ncc2[N+](=O)[O-])CC1 [Compound Ia]
mice with normal weight gain and normal histology of the distal colon (CD4+CD25+ Treg cells [1]; 1:4 ratio of Treg/Teff): 7 of 8
protection of the recipient mice from colitis (CD4+CD25+ Treg cells [1]; 1:4 ratio of Treg/Teff (FIGS. 5a and 5b)): ~100%
suppressive ability of Treg cells (cell proliferation) (CD4+CD25+ Treg cells [2]): significantly up-regulated
induction of suppressive activity in treated Teff (non-Treg) added to untreated responder Teff (CD4+CD25+ Treg cells [3]; CD4+CD25- Teff treated, 1:9 ratio (FIGS. 1a and 1b)): does not induce suppressive activity
suppressive ability of Treg cells (IFN-gamma production by Teff) (CD4+CD25+ Treg cells [3]; Treg treated 0.001-1 microM 30 min, washed, Treg/Teff 1:9, anti-CD3, IFN-gamma after 24 h (FIG. 1a)): significantly up-regulated
treatment time for maximal levels of enhanced suppressive function (CD4+CD25+ Treg cells [3]; Treg treated at 1 microM for 0-60 min, IFN-gamma readout (FIG. 1c)): 30 min
ability of Treg cells to inhibit IFN-gamma secretion in Teff cells (CD4+CD25+ Treg cells [3]; treated or siRNA-transfected Treg, Treg/Teff 1:9, 24-48 h (FIG. 4)): increased
IC50 (PKC-theta): 0.7 nM
suppressive function of Treg cells purified from RA patients (IFN-gamma) [4]: significantly increased

N[C@H]1CC[C@H](CNc2nc(NCc3ccccc3OC(F)(F)F)ncc2[N+](=O)[O-])CC1 [Ib]
IC50 (PKC-theta): 1 nM
